The source of these data is ChEMBL document CHEMBL1131845, “Naphthazarin derivatives (II): formation of glutathione conjugate, inhibition of DNA topoisomerase-I and cytotoxicity” (Bioorg Med Chem Lett, 1999).

For one assay, the system named is L1210. The assay is described as follows: Cytotoxicity against L1210 cells. The following applies: Mus musculus, read-out: ED50 (the source's name). The class given is functional.
Assay [1] can be described thus: Concentration formed during 5 min incubation of quinone (1 mM) with GSH (5 mM).

Each structure is given as a SMILES string. Values after ≈ are worked out from the molar mass of the structure shown.

Take `COc1cc(CO)c(OC)c2c1C(=O)C=CC2=O`: in the assay on L1210, the EC50 came out at 0.062 µg/mL (≈ 0.25 µM). The Concentration in assay [1] came to 0.314 mM. Regarding `CCCCC(O)c1cc(OC)c2c(c1OC)C(=O)C=CC2=O` (stereo not given), in the assay on L1210, the EC50 amounted to 0.057 µg/mL (≈ 0.187 µM). Turning to `CCCCCCCC(O)C1=CC(=O)c2c(OC)ccc(OC)c2C1=O` (stereo not given), in the assay with L1210, the EC50 was found to be 1.04 µg/mL (≈ 3.01 µM). Moreover, in assay [1], the Concentration was 0.06 mM.

For `COc1cc(C(C)O)c(OC)c2c1C(=O)C=CC2=O` (stereo not given), in the assay on L1210, the EC50 was 0.132 µg/mL (≈ 0.503 µM). Besides, in assay [1], the Concentration came out at 0.304 mM.

On to `CCC(O)C1=CC(=O)c2c(OC)ccc(OC)c2C1=O` (stereo not given), for which the EC50 in the assay on L1210 is 0.516 µg/mL (≈ 1.87 µM). Moreover, the Concentration in assay [1] worked out at 0.084 mM. In the same order, the values of `CCCCCCCC(O)c1cc(OC)c2c(c1OC)C(=O)C=CC2=O` (stereo not given) are 0.274 µg/mL (≈ 0.791 µM) and 0.137 mM.

`CCCCCCC(O)c1cc(OC)c2c(c1OC)C(=O)C=CC2=O` (stereo not given): the EC50 with L1210 was 0.22 µg/mL (≈ 0.662 µM). For the same molecule, the Concentration in assay [1] was determined as 0.182 mM. As to `CCCCCC(O)c1cc(OC)c2c(c1OC)C(=O)C=CC2=O` (stereo not given), the EC50 with L1210 is 0.066 µg/mL (≈ 0.207 µM). This molecule also yielded a Concentration in assay [1] of 0.28 mM. In the same order, the values of `CCC(O)c1cc(OC)c2c(c1OC)C(=O)C=CC2=O` (stereo not given) are 0.085 µg/mL (≈ 0.308 µM) and 0.295 mM. In the same order, the values of `CCCC(O)C1=CC(=O)c2c(OC)ccc(OC)c2C1=O` (stereo not given) are 0.409 µg/mL (≈ 1.41 µM) and 0.116 mM.

In the case of `COc1ccc(OC)c2c1C(=O)C=C(C(C)O)C2=O` (stereo not given), the EC50 in the assay on L1210 came to 0.487 µg/mL (≈ 1.86 µM). The Concentration in assay [1] is 0.125 mM.

For the molecule `CCCCCCC(O)C1=CC(=O)c2c(OC)ccc(OC)c2C1=O` (stereo not given), in the assay on L1210, the EC50 is 0.732 µg/mL (≈ 2.2 µM). Moreover, the Concentration in assay [1] was determined as 0.072 mM. With `CCCC(O)c1cc(OC)c2c(c1OC)C(=O)C=CC2=O` (stereo not given), the EC50 in the assay on L1210 was found to be 0.043 µg/mL (≈ 0.148 µM). For `CCCCC(O)C1=CC(=O)c2c(OC)ccc(OC)c2C1=O` (stereo not given), the EC50 in the assay on L1210 was found to be 0.412 µg/mL (≈ 1.35 µM). Besides, in assay [1], the Concentration came to 0.131 mM.

`CCCCCC(O)C1=CC(=O)c2c(OC)ccc(OC)c2C1=O` (stereo not given): the EC50 with L1210 turned out to be 0.378 µg/mL (≈ 1.19 µM). Also, in assay [1], the Concentration was 0.124 mM. In the same order, the values of `COc1ccc(OC)c2c1C(=O)C=C(CO)C2=O` are 0.524 µg/mL (≈ 2.11 µM) and 0.13 mM.
